{
  "source": "patent US20080206364A1",
  "about": "“Topical nitric oxide as a treatment of autoimmune diseases” (Nitric Biotherapeutics, Inc., priority 2006, published 2008)",
  "key": {"[1]": {"system": "full thickness infected wound", "assay": "Histology of full thickness infected wound punch biopsies, gNO-treated vs control animals", "format": "in vivo", "conditions": "for toxic effects (cellular debris) in wound tissue: in vivo exposure, 200 ppm gNO, open wound animal model", "procedure": "FIG. 5 illustrates histology analysis of full thickness infected wound exposed to 200 ppm gNO for 24 hours.\nFIG. 5 presents histological analysis of tissue blocks prepared on wound punch biopsies from animals in NO-treated and control groups. Samples from the control group show more advanced neutrophil infiltration and so a higher degree of inflammatory reaction. […] Overall, a healthier healing process is observed in the wounds treated with gNO."}, "collagenase mRNA": {"system": "collagenase mRNA", "assay": "mRNA expression for collagenase following exposure to gNO", "format": "cell-based", "conditions": "200 ppm gNO, 24 and 48 hours, with increasing exposure time", "description": "Witte M B, et al, (2002) Nitric oxide enhances […] wound healing in diabetes, Br J Surg., 89:1594-601. Thus, Applicants believe that NO may upregulate expression of both collagenase (MMP-1) and gelatinase (MMP-2), which may be important in keeping the wound clean from necrotic tissue while not prolonging the inflammatory phase."}, "collagen mRNA": {"system": "collagen mRNA", "assay": "mRNA expression for collagen following exposure to NO", "format": "cell-based", "description": "Rather than applying exogenous collagenase for enzymatic debridement of necrotic tissue, exposing a wound with necrotic tissue to exogenous NO gas to upregulate endogenous collagenase may be more beneficial. When endogenous collagenase is released by the cell, it automatically releases TIMP's (tissue inhibitor of metalloproteinase). This ensures that the matrix degradation is coordinated and allows the establishment of sharp geographical boundaries of collagenolytic activity and the protection of areas of connective tissue from the activity of the enzyme. In contrast, use of exogenous collagenase material to debride a wound confers no protection to specific areas of the wound as it is active on every cell that comes in contact with it whether or not the effect is desired.\nPreferably, after the exposure of the wound to high concentration of nitric oxide gas for a first treatment period (e.g., 5-8 hours per day), the necrotic tissue may be mechanically removed easily and the concentration of nitric oxide gas can be decreased for a second treatment period. The low concentration of nitric oxide gas (e.g., at 5-20 ppm) delivered for the second treatment period may upregulate the expression of collagen mRNA leading to synthesis of new collagen to aid in the closure of the wound. […] The second treatment period may be for a period 7-16 hours per day. […]"}, "human fibroblast cells": {"system": "human fibroblast cells", "assay": "Fibroblast viability study in gNO incubation chamber (morphology, cell count, proliferation)", "format": "cell-based", "procedure": "Fibroblast cells obtained from adult patients undergoing elective reconstructive surgery were cultured in Dulbeco's Modified Eagle's Medium (DMEM), supplemented with 10% fetal bovine serum (FBS) and antibiotic-antimycotic preparation and divided into ten 25 cm^2 vented culture flasks (COSTAR). Four of these flasks (treated group) were exposed to 20 or 200 ppm humidified gNO inside a specialized NO incubation chamber at 37° C. for 24 and 48 hours. The NO exposure chamber was validated prior to the study to eliminate extraneous variables and ensure optimal conditions for fibroblast cell growth. Another four flasks (control group) were placed inside conventional culture incubator and exposed only to ambient humidified air at 37° C. Two flasks were separately harvested and counted as the number of cells at zero time. Following the treatment, fibroblast cells were harvested and evaluated for morphology, cell count, capacity to proliferate and medium pH.\nCells under gNO appeared healthy and attached to the culture plates."}, "human fibroblasts": {"system": "human fibroblasts", "assay": "Cell attachment capacity of human fibroblasts", "format": "cell-based", "conditions": "160 ppm gNO, within 1 hour of culturing; control group the same", "procedure": "FIG. 9 illustrates cell attachment capacity of human fibroblasts following exposure to 160 ppm of gNO.\nCapability of cells to reattach to the culture plates within a specified time limit is commonly used as an indication of viability of cells in culture. Both the control and treated groups show a 70% attachment capacity within 1 hour of culturing."}, "[2]": {"system": "fibroblasts grown in a 3D matrix", "assay": "Migration and proliferation of fibroblasts grown in a 3D matrix", "format": "cell-based", "conditions": "200 ppm NO, 8 hours per day for 3 days, vs air or conventional incubator"}, "human endothelial cells": {"system": "human endothelial cells", "assay": "Tube formation in human endothelial cells grown in matrigel", "format": "cell-based", "conditions": "200 ppm NO, 8 hours or 24 hours", "procedure": "Left panels at 8 hours of exposure. Right panels at 24 hours of exposure."}, "[3]": {"system": "leg ulcer induced by an autoimmune disorder", "assay": "Autoimmune wound patient: leg ulcer in antiphospholipid antibody syndrome, topical nitric oxide gas", "format": "in vivo, human", "description": "A patient was diagnosed with antiphospholipid antibody syndrome. Antiphospholipid antibody syndrome is an autoimmune disorder that mainly affects people under the age of 40. The disease causes the blood in the body to clot and is associated with a type of antibody that attacks blood platelets. Strokes, deep vein thrombosis (DVT), heart attacks, and pulmonary emboli are some of the manifestations of the disease. As a result of this syndrome, the patient had two DVT's and one pulmonary embolism.\nFollowing repetitive injury to the deep venous system, the patient developed three areas of ulceration and secondary skin breakdown on the left shin area of the leg. The wound was colonized with a variety of organisms and at times had been clinically infected. The patient had been treated with numerous types of oral and IV antibiotics over several years. Many different types of dressings had been used to control the bacteria, including silver dressings, all without success.\nThe three small ulcers continued to grow in size and then joined together to create one large ulcer (FIG. 15A). Skin grafts on two occasions deteriorated and sloughed due to repetitive infections and high bacterial burden, even with the use of hyperbaric oxygen treatment.\nWith the inability to control the bacterial burden, amputation was planned. As a rescue trial, topical nitric oxide gas was applied for eight hours per night.\nThe nitric oxide therapy was then changed to be used for 12 hours per night, using 200 ppm gNO."}, "psoriatic lesions": {"system": "psoriatic lesions", "assay": "Psoriasis study, one volunteer, NO delivered to right foot in plastic boot", "format": "in vivo, human", "conditions": "300 ppm", "procedure": "Experiments were conducted using one volunteer who suffers from psoriasis. The subject had psoriasis on their arms, legs and feet, all of which is itchy and painful. At the time of the study, the volunteer was using a medicated cream called DOVOBET on the arms and legs. The subject stopped using the medicated cream on the legs and feet prior to the NO treatments described herein.\nTreatments were administered to the subject's right foot, as it appeared to have been affected the most by psoriasis. […] Around the ankle were small red blotches that spread all of the way up the leg. The small blotches were slightly raised and appeared to be inflamed.\nThe subject's foot was placed into a large plastic boot, which was lightly secured with VELCRO straps halfway up the calf. A tube coming out of the top of the plastic boot was unaltered, and the second tube was sealed off using a plastic clamp. A NO line capable of delivering NO at 300 ppm, 250 cc per minute, was screwed into the bottom tubing closest to the ankle using a plastic screw. A pin was used to pick several holes in the bottom of the plastic boot to allow the NO to flow through the boot. NO was then administered to the boot, and therefore, the psoriatic lesions, at 300 ppm for 180 minutes per day over six consecutive days."}, "[4]": {"conditions": "gNO less than 200 ppm continuously for 48 hours"}, "[5]": {"conditions": "200 ppm gNO, 12 hours per night, another eight weeks"}, "[6]": {"conditions": "after second treatment (day two)"}, "[7]": {"conditions": "after third treatment (day three)"}},
  "note": "“Also recorded” adds a separate entry of the source.",
  "data": [
    {"compound": "[N]=O", "note": "[NO, nitric oxide]", "values": [
      {"measurement": "neutrophil concentration (inflammatory reaction) in wounds", "setting": "[1]; 200 ppm gNO for 24 hours, vs control group", "result": "lower level of neutrophil concentration"},
      {"measurement": "wound closure / healing process (histology)", "setting": "[1]; 200 ppm gNO for 24 hours, vs control wounds", "result": "layer of granular tissue closing on the wound"},
      {"measurement": "toxic effects (cellular debris) in wound tissue", "setting": "[1]; listed as gNO", "result": "No toxic effects"},
      {"measurement": "toxic effects (cellular debris) in wound tissue", "setting": "[1]; listed as nitric oxide gas", "result": "no toxicity"},
      {"measurement": "expression of collagenase mRNA", "setting": "collagenase mRNA", "result": "increased"},
      {"measurement": "collagen mRNA expression", "setting": "collagen mRNA; fibroblasts exposed to 5 ppm of NO", "result": "increased collagen mRNA expression"},
      {"measurement": "collagen expression", "setting": "collagen mRNA; high concentration (200 ppm) of exogenous nitric oxide, FIG. 6 left panel", "result": "possible inhibition of collagen expression"},
      {"measurement": "fibroblast cell proliferation", "setting": "human fibroblast cells; 200 ppm NO, vs control", "result": "increasing proliferation; also recorded: increase in fibroblast cell proliferation"},
      {"measurement": "harmful effects on the fibroblast (morphology, cell count, capacity to proliferate, medium pH)", "setting": "human fibroblast cells; around 200 ppm gNO, 24 and 48 hours, 37° C.", "result": "did not have harmful effects"},
      {"measurement": "morphological appearance and attachment capacity of treated vs control dermal fibroblasts", "setting": "human fibroblast cells; [4]", "result": "quite comparable"},
      {"measurement": "toxic effect due to exposure", "setting": "human fibroblast cells; [4]", "result": "No toxic effect"},
      {"measurement": "attachment capacity", "setting": "human fibroblasts", "result": 70, "unit": "%"},
      {"measurement": "migration of fibroblasts", "setting": "[2]", "result": "does not appear to affect"},
      {"measurement": "proliferation of fibroblasts in 3D matrix", "setting": "[2]", "result": "does not appear to interfere with the proliferation"},
      {"measurement": "tube formation vs air", "setting": "human endothelial cells", "result": "no significant difference"},
      {"measurement": "clinical outcome (planned amputation)", "setting": "[3]; [5]", "result": "amputation was avoided"},
      {"measurement": "wound covered by beefy red granulation tissue", "setting": "[3]; [5]", "result": "~75", "unit": "%"},
      {"measurement": "wound appearance", "setting": "[3]; topical, eight hours per night, within six weeks", "result": "less yellow slough in the wound bed, the wound edges appeared less raised, and more granulation buds were present"},
      {"measurement": "appearance of the psoriasis", "setting": "psoriatic lesions; 180 min, after first treatment (day one)", "result": "no change"},
      {"measurement": "white scales on the ankle", "setting": "psoriatic lesions; 180 min, after the first day", "result": "disappeared"},
      {"measurement": "discolored (dark) patch of skin on inner calf", "setting": "psoriatic lesions; 180 min per day, after day two", "result": "almost gone"},
      {"measurement": "physical results (psoriatic condition)", "setting": "psoriatic lesions; after fourth, fifth and sixth treatments (days 4, 5 and 6)", "result": "remain the same"},
      {"measurement": "inflammation around the ankle", "setting": "psoriatic lesions; [6]", "result": "diminished slightly"},
      {"measurement": "small red blotches around the ankle and up the leg", "setting": "psoriatic lesions; [6]", "result": "the same as prior to the treatment"},
      {"measurement": "inflammation around the ankle", "setting": "psoriatic lesions; [7]", "result": "decreased considerably"},
      {"measurement": "psoriatic lesion around the ankle (area)", "setting": "psoriatic lesions; [7]", "result": "smaller in area"},
      {"measurement": "small red blotches around the ankle and up the leg", "setting": "psoriatic lesions; [7]", "result": "appeared the same"}
    ]}
  ]
}
